Laboratory results reported in patent US20250170248A1, “SMARCA DEGRADERS AND USES THEREOF” (Kymera Therapeutics, Inc., priority 2021, published 2025).

How the values were obtained:
Assay type in all cases: cell-based
[1] = biological target: T1, SMARCA2 (Homo sapiens, UniProt P51531); assay: MSD SMARCA2 degradation in A549 cell line; settings: for Dmax: A549, A549 cells; for Dmax / DC50: 24 h; for DC50 / SMARCA2 MSD A549 degradation 24 h: Average Dmax %: A549 cells; for DC50: read-out: SMARCA2 MSD A549 degradation 24 h: Average external-Abs DC50
T1 sequence (P51531 whole entry): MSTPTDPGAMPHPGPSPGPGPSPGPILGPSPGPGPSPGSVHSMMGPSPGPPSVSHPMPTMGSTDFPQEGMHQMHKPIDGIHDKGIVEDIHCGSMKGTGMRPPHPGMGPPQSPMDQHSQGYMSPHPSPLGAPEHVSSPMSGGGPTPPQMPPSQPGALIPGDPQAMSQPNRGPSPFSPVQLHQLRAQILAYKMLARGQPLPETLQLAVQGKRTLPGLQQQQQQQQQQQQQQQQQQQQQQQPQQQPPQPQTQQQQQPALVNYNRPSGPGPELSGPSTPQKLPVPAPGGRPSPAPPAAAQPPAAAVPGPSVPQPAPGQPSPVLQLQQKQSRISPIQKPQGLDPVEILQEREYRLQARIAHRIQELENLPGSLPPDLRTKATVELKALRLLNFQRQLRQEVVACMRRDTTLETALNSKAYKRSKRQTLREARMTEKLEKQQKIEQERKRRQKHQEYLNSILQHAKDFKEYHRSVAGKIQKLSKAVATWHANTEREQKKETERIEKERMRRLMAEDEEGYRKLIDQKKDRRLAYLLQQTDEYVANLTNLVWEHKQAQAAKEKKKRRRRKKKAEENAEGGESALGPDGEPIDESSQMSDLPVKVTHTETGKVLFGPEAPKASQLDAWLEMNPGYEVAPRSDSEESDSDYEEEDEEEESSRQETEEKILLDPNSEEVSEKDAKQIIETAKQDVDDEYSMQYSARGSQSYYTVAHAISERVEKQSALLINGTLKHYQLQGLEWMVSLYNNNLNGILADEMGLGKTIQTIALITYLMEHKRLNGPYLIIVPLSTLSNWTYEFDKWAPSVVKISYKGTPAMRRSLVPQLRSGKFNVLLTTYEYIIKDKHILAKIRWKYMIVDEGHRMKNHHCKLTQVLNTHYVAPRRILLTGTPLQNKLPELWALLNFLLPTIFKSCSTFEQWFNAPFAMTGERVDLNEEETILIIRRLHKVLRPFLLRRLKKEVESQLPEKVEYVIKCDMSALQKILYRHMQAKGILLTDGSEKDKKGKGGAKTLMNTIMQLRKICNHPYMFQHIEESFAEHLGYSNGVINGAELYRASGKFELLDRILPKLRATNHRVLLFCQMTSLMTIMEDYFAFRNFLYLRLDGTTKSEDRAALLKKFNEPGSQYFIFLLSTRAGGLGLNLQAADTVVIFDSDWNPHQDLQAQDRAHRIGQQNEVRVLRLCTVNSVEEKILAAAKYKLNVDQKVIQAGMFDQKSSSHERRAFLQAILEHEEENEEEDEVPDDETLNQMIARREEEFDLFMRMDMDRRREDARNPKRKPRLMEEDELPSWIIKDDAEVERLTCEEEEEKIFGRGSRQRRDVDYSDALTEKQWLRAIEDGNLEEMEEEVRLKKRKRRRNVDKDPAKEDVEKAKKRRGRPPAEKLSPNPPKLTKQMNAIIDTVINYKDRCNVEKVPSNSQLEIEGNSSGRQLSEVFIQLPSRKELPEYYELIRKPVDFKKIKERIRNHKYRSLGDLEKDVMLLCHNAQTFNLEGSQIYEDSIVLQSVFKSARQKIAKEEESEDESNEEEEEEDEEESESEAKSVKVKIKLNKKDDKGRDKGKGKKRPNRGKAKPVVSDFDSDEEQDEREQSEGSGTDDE
How it was run: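 A549 cells treated 24 h with compound, 3-fold series from 1000 nM. Lysates captured on MSD plates and SMARCA2 quantified with anti-SMARCA2 and SULFO-TAG secondary antibodies (electrochemiluminescence). DC50 and Dmax (% degradation at 24 h) reported as letter bins.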

[2] = biological target: T1, SMARCA2; assay: SMARCA2 Western blot degradation in MV4-11 cells; design: SMARCA2/SMARCA4 protein degradation selectivity in MV4-11 cells; endogenous in cells; host or cells: MV4-11; settings: for Dmax: MV4-11, MV4-11 cells, read-out: SMARCA2 MSD MV411 degradation 24 h: average Dmax %; for Dmax / DC50 / SMARCA2 MSD MV411 degradation 24 h: average Dmax %: 24 h; for DC50 / Selectivity in MV411 / SMARCA2 MSD MV411 degradation 24 h: average Dmax %: MV4-11 cells; for DC50: read-out: SMARCA2 MSD MV411 degradation 24 h: Mean external-Abs DC50; for Selectivity in MV411: SMARCA2/4 selectivity
[3] = biological target: T2, SMARCA4 (Homo sapiens, UniProt P51532); assay: SMARCA4 Western blot degradation in MV4-11 cells; settings: for Dmax: MV4-11, MV4-11 cells, read-out: SMARCA4 MSD MV411 degradation 24 h: average Dmax %; for Dmax / DC50: 24 h; for DC50 / SMARCA4 MSD MV411 degradation 24 h: average Dmax %: MV4-11 cells; for DC50: read-out: SMARCA4 MSD MV411 degradation 24 h: Mean external-Abs DC50
T2 construct: SMARCA2/SMARCA4 protein degradation selectivity in MV4-11 cells; endogenous in cells; host or cells: MV4-11
T2 sequence (P51532 whole entry): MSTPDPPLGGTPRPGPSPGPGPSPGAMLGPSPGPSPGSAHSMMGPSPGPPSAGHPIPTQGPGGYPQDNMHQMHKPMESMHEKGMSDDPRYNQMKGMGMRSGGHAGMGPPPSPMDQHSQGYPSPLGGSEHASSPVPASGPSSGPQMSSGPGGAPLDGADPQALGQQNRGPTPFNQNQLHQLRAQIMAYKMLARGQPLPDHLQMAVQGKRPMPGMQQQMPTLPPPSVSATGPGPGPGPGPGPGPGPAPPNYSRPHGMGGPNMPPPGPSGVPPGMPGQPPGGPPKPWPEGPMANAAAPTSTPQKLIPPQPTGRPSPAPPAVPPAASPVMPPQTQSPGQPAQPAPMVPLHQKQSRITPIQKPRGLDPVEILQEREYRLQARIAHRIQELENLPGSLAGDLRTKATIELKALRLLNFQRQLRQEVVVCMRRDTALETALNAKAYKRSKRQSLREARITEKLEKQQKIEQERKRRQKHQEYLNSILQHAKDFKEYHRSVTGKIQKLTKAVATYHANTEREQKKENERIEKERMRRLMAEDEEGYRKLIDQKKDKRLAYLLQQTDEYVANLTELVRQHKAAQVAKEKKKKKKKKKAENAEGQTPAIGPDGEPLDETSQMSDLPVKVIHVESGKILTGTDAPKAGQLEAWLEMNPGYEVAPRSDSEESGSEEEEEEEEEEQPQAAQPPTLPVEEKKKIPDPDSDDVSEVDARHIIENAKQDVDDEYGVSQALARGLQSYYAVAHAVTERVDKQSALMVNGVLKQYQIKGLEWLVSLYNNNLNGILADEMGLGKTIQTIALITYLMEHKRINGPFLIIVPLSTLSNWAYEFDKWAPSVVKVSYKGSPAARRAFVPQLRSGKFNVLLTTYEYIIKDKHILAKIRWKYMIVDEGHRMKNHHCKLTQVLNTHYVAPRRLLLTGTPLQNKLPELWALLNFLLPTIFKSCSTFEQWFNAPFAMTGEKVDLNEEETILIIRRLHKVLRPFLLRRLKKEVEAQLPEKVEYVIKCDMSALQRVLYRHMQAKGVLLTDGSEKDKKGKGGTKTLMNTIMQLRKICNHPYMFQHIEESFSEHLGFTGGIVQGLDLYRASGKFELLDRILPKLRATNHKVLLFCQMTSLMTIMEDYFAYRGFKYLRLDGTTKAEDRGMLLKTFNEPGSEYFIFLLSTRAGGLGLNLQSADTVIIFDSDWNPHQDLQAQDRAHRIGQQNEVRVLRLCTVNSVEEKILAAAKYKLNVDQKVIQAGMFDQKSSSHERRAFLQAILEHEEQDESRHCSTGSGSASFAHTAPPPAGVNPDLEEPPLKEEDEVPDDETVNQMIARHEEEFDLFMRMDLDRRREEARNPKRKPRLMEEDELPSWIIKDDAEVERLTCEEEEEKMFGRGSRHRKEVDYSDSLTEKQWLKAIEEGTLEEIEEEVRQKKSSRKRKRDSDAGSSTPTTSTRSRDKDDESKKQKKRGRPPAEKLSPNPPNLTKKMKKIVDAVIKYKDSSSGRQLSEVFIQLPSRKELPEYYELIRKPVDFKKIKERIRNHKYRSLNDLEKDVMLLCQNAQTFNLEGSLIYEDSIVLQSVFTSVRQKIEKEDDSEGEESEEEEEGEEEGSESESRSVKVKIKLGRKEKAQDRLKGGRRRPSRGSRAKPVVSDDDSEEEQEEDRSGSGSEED
How it was run: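 24 h compound exposure, MV4-11; RIPA lysates → SDS-PAGE → NC membrane; anti-SMARCA2/BRM, anti-BRG1, β-actin loading control; LI-COR fluorescence read. DC50 and Dmax at 24 h reported as letter bins.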

Cn1nccc1-c1ccc(CNC(=O)[C@@H]2C[C@@H](O)CN2C(=O)[C@@H](NC(=O)[C@H]2CC[C@H](c3ccc(-c4cnc(N5CCN6c7cc(-c8ccccc8O)nnc7NC[C@H]6C5)nc4)cc3)CC2)C(C)(C)C)cc1 (single isomer, unassigned) [I-87]
Dmax [1]: > 90% | DC50 [1]: 10 to 50 nM | Dmax [2]: 70 to 90% | DC50 [2]: 10 to 100 nM | Selectivity in MV411 [2]: C (C (10-100 fold)) | Dmax [3]: > 90% | DC50 [3]: 10 to 100 nM

Cn1nccc1-c1ccc(CNC(=O)[C@@H]2C[C@@H](O)CN2C(=O)[C@@H](NC(=O)[C@H]2CC[C@@H](c3ccc(-c4cnc(N5CCN6c7cc(-c8ccccc8O)nnc7NC[C@H]6C5)nc4)cc3)CC2)C(C)(C)C)cc1 (single isomer, unassigned) [I-88]
Dmax [1]: > 90% | DC50 [1]: < 10 nM | Dmax [2]: > 90% | DC50 [2]: < 1 nM | Selectivity in MV411 [2]: C (C (10-100 fold)) | Dmax [3]: > 90% | DC50 [3]: 1 to 10 nM

C#Cc1ccc(CNC(=O)[C@@H]2C[C@@H](O)CN2C(=O)[C@@H](NC(=O)C2CCC3(CC2)CC(N2CCC(N4CCC[C@H](C(=O)N5CCN6c7cc(-c8ccccc8O)nnc7NC[C@H]6C5)C4)CC2)C3)C(C)(C)C)cc1 (single isomer, unassigned) [I-90]
Dmax [1]: 70 to 90% | DC50 [1]: > 100 nM | Dmax [2]: 70 to 90% | DC50 [2]: 10 to 100 nM | Selectivity in MV411 [2]: C (C (10-100 fold)) | Dmax [3]: < 50% | DC50 [3]: > 100 nM

C#Cc1ccc(CNC(=O)[C@@H]2C[C@@H](O)CN2C(=O)[C@@H](NC(=O)C2CCC3(CC2)CC(N2CCC(N4CCC[C@@H](C(=O)N5CCN6c7cc(-c8ccccc8O)nnc7NC[C@H]6C5)C4)CC2)C3)C(C)(C)C)cc1 (single isomer, unassigned) [I-91]
Dmax [1]: > 90% | DC50 [1]: > 100 nM | Dmax [2]: 70 to 90% | DC50 [2]: 1 to 10 nM | Selectivity in MV411 [2]: A (A (>500 fold)) | Dmax [3]: < 50% | DC50 [3]: > 100 nM

Cc1ncsc1-c1ccc(CNC(=O)[C@@H]2C[C@@H](O)CN2C(=O)[C@@H](NC(=O)[C@H]2CCC3(CC2)C[C@H](N2CCC4(CC2)CN(C(=O)N2CCN5c6cc(-c7ccccc7O)nnc6NC[C@H]5C2)CCO4)C3)C(C)(C)C)cc1 (single isomer, unassigned) [I-93]
SMARCA2 MSD A549 degradation 24 h: Average Dmax % [1]: A (A (>90% degradation)) | DC50 [1]: > 100 nM | SMARCA2 MSD MV411 degradation 24 h: average Dmax % [2]: B (B (>70-90% degradation)) | DC50 [2]: 10 to 100 nM | Selectivity in MV411 [2]: C (C (10-100 fold)) | SMARCA4 MSD MV411 degradation 24 h: average Dmax % [3]: C (C (50-70% degradation)) | DC50 [3]: > 100 nM

C#Cc1ccc(CNC(=O)[C@@H]2C[C@@H](O)CN2C(=O)[C@@H](NC(=O)[C@H]2CCC3(CC2)C[C@H](N2CCC(c4cnc(N5CCN6c7cc(-c8ccccc8O)nnc7NC[C@H]6C5)nc4)CC2)C3)C(C)(C)C)c(F)c1 (single isomer, unassigned) [I-97]
Dmax [1]: > 90% | DC50 [1]: 10 to 50 nM | Dmax [2]: 70 to 90% | DC50 [2]: 1 to 10 nM | Selectivity in MV411 [2]: A (A (>500 fold)) | Dmax [3]: < 50% | DC50 [3]: > 100 nM

C#Cc1ccc(CNC(=O)[C@@H]2C[C@@H](O)CN2C(=O)[C@@H](NC(=O)[C@H]2CCC3(CC2)C[C@H](N2CCC(c4cnc(N5CCN6c7cc(-c8ccccc8O)nnc7NC[C@H]6C5)nc4)CC2)C3)C(C)(C)C)c(Cl)c1 (single isomer, unassigned) [I-98]
Dmax [1]: > 90% | DC50 [1]: 10 to 50 nM | Dmax [2]: 70 to 90% | DC50 [2]: 1 to 10 nM | Selectivity in MV411 [2]: A (A (>500 fold)) | Dmax [3]: < 50% | DC50 [3]: > 100 nM

C#Cc1ccc(CNC(=O)[C@@H]2C[C@@H](O)CN2C(=O)[C@@H](NC(=O)[C@H]2CCC3(CC2)C[C@H](N2CCC(c4cnc(N5CCN6c7cc(-c8ccccc8O)nnc7NC[C@H]6C5)nc4)CC2)C3)C(C)(C)C)c(Cl)c1 (single isomer, unassigned) [I-99]
SMARCA2 MSD A549 degradation 24 h: Average Dmax % [1]: A (A (>90% degradation)) | DC50 [1]: < 10 nM | SMARCA2 MSD MV411 degradation 24 h: average Dmax % [2]: B (B (>70-90% degradation)) | DC50 [2]: 1 to 10 nM | Selectivity in MV411 [2]: B (B (>100-500 fold)) | SMARCA4 MSD MV411 degradation 24 h: average Dmax % [3]: C (C (50-70% degradation)) | DC50 [3]: > 100 nM

C#Cc1ccc(CNC(=O)[C@@H]2C[C@@H](O)CN2C(=O)[C@@H](NC(=O)[C@H]2CCC3(CC2)C[C@H](N2CCC(c4cnc(N5CCN6c7cc(-c8ccccc8O)nnc7NC[C@H]6C5)nc4)CC2)C3)C(C)(C)C)c(OC)c1 (single isomer, unassigned) [I-100]
SMARCA2 MSD A549 degradation 24 h: Average Dmax % [1]: A (A (>90% degradation)) | DC50 [1]: < 10 nM | Dmax [2]: > 90% | DC50 [2]: < 1 nM | Selectivity in MV411 [2]: C (C (10-100 fold)) | Dmax [3]: 70 to 90% | DC50 [3]: 10 to 100 nM

CC(C)(C)[C@H](NC(=O)[C@H]1CCC2(CC1)C[C@H](N1CCC(c3cnc(N4CCN5c6cc(-c7ccccc7O)nnc6NC[C@H]5C4)nc3)CC1)C2)C(=O)N1C[C@H](O)C[C@H]1C(=O)NCC#Cc1ccc(Cl)cc1 (single isomer, unassigned) [I-101]
Dmax [1]: 50 to 70% | DC50 [1]: > 100 nM | Dmax [2]: < 50% | DC50 [2]: > 100 nM | Selectivity in MV411 [2]: C (C (10-100 fold)) | Dmax [3]: < 50% | DC50 [3]: > 100 nM

C#Cc1ccc(CNC(=O)[C@@H]2C[C@@H](O)CN2C(=O)[C@@H](NC(=O)[C@H]2CCC3(CC2)C[C@H](N2CCC(c4cnc(N5CCN6c7cc(-c8cccc(F)c8O)nnc7NC[C@H]6C5)nc4)CC2)C3)C(C)(C)C)cc1 (single isomer, unassigned) [I-102]
SMARCA2 MSD A549 degradation 24 h: Average Dmax % [1]: A (A (>90% degradation)) | DC50 [1]: 10 to 50 nM | Dmax [2]: 70 to 90% | DC50 [2]: 1 to 10 nM | Selectivity in MV411 [2]: C (C (10-100 fold)) | Dmax [3]: 50 to 70% | DC50 [3]: > 100 nM

CC#Cc1ccc(CNC(=O)[C@@H]2C[C@@H](O)CN2C(=O)[C@@H](NC(=O)[C@H]2CCC3(CC2)C[C@H](N2CCC(c4cnc(N5CCN6c7cc(-c8ccccc8O)nnc7NC[C@H]6C5)nc4)CC2)C3)C(C)(C)C)cc1 (single isomer, unassigned) [I-103]
Dmax [1]: > 90% | DC50 [1]: 50 to 100 nM | Dmax [2]: 50 to 70% | DC50 [2]: 1 to 10 nM | Selectivity in MV411 [2]: C (C (10-100 fold)) | Dmax [3]: 70 to 90% | DC50 [3]: > 100 nM

Cc1cc(Cl)ccc1C#CCNC(=O)[C@@H]1C[C@@H](O)CN1C(=O)[C@@H](NC(=O)[C@H]1CCC2(CC1)C[C@H](N1CCC(c3cnc(N4CCN5c6cc(-c7ccccc7O)nnc6NC[C@H]5C4)nc3)CC1)C2)C(C)(C)C (single isomer, unassigned) [I-104]
SMARCA2 MSD A549 degradation 24 h: Average Dmax % [1]: A (A (>90% degradation)) | DC50 [1]: > 100 nM | Dmax [2]: < 50% | DC50 [2]: > 100 nM | Selectivity in MV411 [2]: C (C (10-100 fold)) | Dmax [3]: 70 to 90% | DC50 [3]: > 100 nM

C#Cc1ccc(CNC(=O)[C@@H]2C[C@@H](O)CN2C(=O)[C@@H](NC(=O)[C@H]2CC3(C2)C[C@H](N2CCC(N4CCC(N5CCN6c7cc(-c8ccccc8O)nnc7NC[C@H]6C5)CC4)CC2)C3)C(C)(C)C)cc1 (single isomer, unassigned) [I-113]
Dmax [1]: > 90% | DC50 [1]: 10 to 50 nM | Dmax [2]: 70 to 90% | DC50 [2]: 1 to 10 nM | Selectivity in MV411 [2]: B (B (>100-500 fold)) | Dmax [3]: 50 to 70% | DC50 [3]: > 100 nM

CC(C)(C)[C@H](NC(=O)[C@H]1CCC2(CC1)C[C@H](N1CCC(c3cnc(N4CCN5c6cc(-c7ccccc7O)nnc6NC[C@H]5C4)nc3)CC1)C2)C(=O)N1C[C@H](O)C[C@H]1C(=O)NCC#Cc1ccc(Cl)cc1 (single isomer, unassigned) [I-114]
SMARCA2 MSD A549 degradation 24 h: Average Dmax % [1]: D (D (<50% degradation)) | DC50 [1]: > 100 nM | SMARCA2 MSD MV411 degradation 24 h: average Dmax % [2]: D (D (<50% degradation)) | DC50 [2]: > 100 nM | Selectivity in MV411 [2]: C (C (10-100 fold)) | SMARCA4 MSD MV411 degradation 24 h: average Dmax % [3]: D (D (<50% degradation)) | DC50 [3]: > 100 nM

C#Cc1ccc(CNC(=O)[C@@H]2C[C@@H](O)CN2C(=O)[C@@H](NC(=O)[C@H]2CCC3(CC2)C[C@H](N2CCC(c4cnc(N5CCN6c7cc(-c8ccccc8O)nnc7NC[C@H]6C5)nc4)CC2)C3)C(C)(C)C)c(F)c1 (single isomer, unassigned) [I-116]
SMARCA2 MSD A549 degradation 24 h: Average Dmax % [1]: A (A (>90% degradation)) | DC50 [1]: 10 to 50 nM | SMARCA2 MSD MV411 degradation 24 h: average Dmax % [2]: B (B (>70-90% degradation)) | DC50 [2]: 1 to 10 nM | Selectivity in MV411 [2]: B (B (>100-500 fold)) | SMARCA4 MSD MV411 degradation 24 h: average Dmax % [3]: D (D (<50% degradation)) | DC50 [3]: > 100 nM

CC#Cc1ccc(CNC(=O)[C@@H]2C[C@@H](O)CN2C(=O)[C@@H](NC(=O)[C@H]2CCC3(CC2)C[C@H](N2CCC(c4cnc(N5CCN6c7cc(-c8ccccc8O)nnc7NC[C@H]6C5)nc4)CC2)C3)C(C)(C)C)cc1 (single isomer, unassigned) [I-117]
SMARCA2 MSD A549 degradation 24 h: Average Dmax % [1]: A (A (>90% degradation)) | DC50 [1]: > 100 nM | SMARCA2 MSD MV411 degradation 24 h: average Dmax % [2]: C (C (50-70% degradation)) | DC50 [2]: 10 to 100 nM | Selectivity in MV411 [2]: C (C (10-100 fold)) | SMARCA4 MSD MV411 degradation 24 h: average Dmax % [3]: D (D (<50% degradation)) | DC50 [3]: > 100 nM
